This is an account of results in patent US20230105701A1, “DISSOLUTION-ENHANCED OLAPARIB COMPOSITION” (SHANGHAI INSTITUTE OF MATERIA MEDICA, CHINESE ACADEMY OF …, priority 2020, published 2023).

Data set [1] is described as follows: Solubility test (supersaturated solubility by HPLC). The following applies: pH 4.0 citric acid/disodium hydrogen phosphate buffer, aqueous buffer, thermodynamic from solid, pH 4.0 citrate buffer, 37° C., shaker 100 rpm, equivalent to 10 mg olaparib in 5 ml, average of 2 runs. It is filed as physicochemical. Here is the method: The dissolution-enhanced olaparib compositions prepared in Preparation Examples 1-3 and Comparative Examples 1-8 and the olaparib API (free base) were taken in an amount equivalent to 10 mg of olaparib, dispersed in 5 ml of a pH 4.0 buffer (citric acid: 21 g/L: disodium hydrogen phosphate 71.63 g/L=61.45:38.55) as the solvent and shaken in a shaker at 100 rpm for 2 h at 37° C., and sampled. The samples were centrifugal filtered and measured by HPLC to determine the supersaturated solubility. The average value was obtained from 2 parallel runs.
The operation conditions of the HPLC were:
Apparatus: A liquid chromatograph with a UV detector;
Chromatographic Waters Sunfire C18, 4.6 mm*50 mm
Eluent: A: 0.1% TFA in water; B: 0.1% TFA in acetonitrile;

The conditions of data set [2]: cited from earlier work.
The conditions of data set [3]: within the physiological pH range; cited from earlier work.

As a reminder, the solubility is the dissolved amount per volume that the medium holds. On to `O=C(c1cc(Cc2n[nH]c(=O)c3ccccc23)ccc1F)N1CCN(C(=O)C2CC2)CC1` [Olaparib API, 1-(cyclopropanoyl)-4-[5-[(3,4-dihydro-4-oxo-1-phthalazinyl)methyl]-2-fluorobenzoyl]piperazine], for which, in data set [1], the solubility at 2 h worked out at 118 µg/mL. In addition, the permeability result in data set [2] is recorded as “medium”. Also, the solubility entry in data set [3] is given as “less than 0.2 mg/ml”.
